Assay results taken from patent US20220081421A1, “ANTIBACTERIAL COMPOUNDS” (Forge Therapeutics, Inc., priority 2018, published 2022).
Values after ≈ are worked out from the molar mass of the structure shown.

Experiments:
K. pneumoniae = assay: MIC by broth microdilution (CLSI), K. pneumoniae; format: cell-based; settings: broth microdilution, cation adjusted Mueller-Hinton Broth, 35° C., 18-24 h; for MIC: Klebsiella pneumoniae, read-out: K. pneumoniae MIC
Procedure: (§1) Minimal inhibitory concentrations (MIC) were determined by the broth microdilution method in accordance with the Clinical and Laboratory Standards Institute (CLSI) guidelines. In brief, organism suspensions were adjusted to a 0.5 McFarland standard to yield a final inoculum between 3×10^5 and 7×10^5 colony-forming units (CFU)/mL. Drug dilutions and inocula were made in sterile, cation adjusted Mueller-Hinton Broth (Beckton Dickinson). An inoculum volume of 100 μL was added to wells containing 100 μL of broth with 2-fold serial dilutions of drug. All inoculated microdilution trays were incubated in ambient air at 35° C. for 18-24 h. Following incubation, the lowest concentration of the drug that prevented visible growth (OD600 nm<0.05) was recorded as the MIC. Performance of the assay was monitored by the use of laboratory quality-control strains and levofloxacin, a compound with a defined MIC spectrum, in accordance with CLSI guidelines.

E. coli = assay: MIC by broth microdilution (CLSI), E. coli; format: cell-based; settings: broth microdilution, cation adjusted Mueller-Hinton Broth, 35° C., 18-24 h; for MIC: Escherichia coli, read-out: E. coli MIC
Procedure: as §1

SMILES | MIC (K. pneumoniae) [µg/mL] | MIC (E. coli) [µg/mL] | K. pneumoniae MIC (K. pneumoniae) | E. coli MIC (E. coli)
O=c1[nH]cnc(C(CNCCF)Cc2ccc(C#Cc3ccc(CN4CCOCC4)nc3)cc2)c1O (stereo not drawn) [Compound 31, 6-(1-((2-fluoroethyl)amino)-3-(4-((6-(morpholinomethyl)pyridin-3-yl)ethynyl)phenyl)propan-2-yl)-5-hydroxypyrimidin-4(3H)-one] | > 32 | > 32 |  | 
C=CCNCC(Cc1ccc(C#CC#Cc2cn[nH]c2)cc1)c1nc[nH]c(=O)c1O (stereo not drawn) [Compound 67, 6-(1-(4-((1H-pyrazol-4-yl)buta-1,3-diyn-1-yl)phenyl)-3-(allylamino)propan-2-yl)-5-hydroxypyrimidin-4(3H)-one] | > 32 | 8 to 32 (≈ 20 to 80.1 µM) |  | 
O=C1N(CCc2nc[nH]c(=O)c2O)Cc2cc(Br)cn21 [Compound 69, 6-bromo-2-(2-(5-hydroxy-6-oxo-1,6-dihydropyrimidin-4-yl)ethyl)-1,2-dihydro-3H-pyrrolo[1,2-c]imidazol-3-one] | > 32 | > 32 |  | 
O=c1[nH]cnc(Cn2ccc3cc(C#Cc4ccc(CN5CCOCC5)cc4)cnc32)c1O [Compound 80, 5-hydroxy-6-((5-((4-(morpholinomethyl)phenyl)ethynyl)-1H-pyrrolo[2,3-b]pyridin-1-yl)methyl)pyrimidin-4(3H)-one] | > 32 | 8 to 32 (≈ 18.1 to 72.5 µM) |  | 
OCC(Cc1nccc(O)c1O)c1ccc(C#Cc2ccc(CN3CCOCC3)cc2)cc1 (stereo not drawn) [Compound 134, 2-(3-hydroxy-2-(4-((4-(morpholinomethyl)phenyl)ethynyl)phenyl)propyl)pyridine-3,4-diol] | > 32 | > 32 |  | 
O=C(NCC(F)F)C(Cc1ccc(C#Cc2ccc(C(F)(F)F)nc2)cc1)c1nc[nH]c(=O)c1O (stereo not drawn) [Compound 26, N-(2,2-difluoroethyl)-2-(5-hydroxy-6-oxo-1,6-dihydropyrimidin-4-yl)-3-(4-((6-(trifluoromethyl)pyridin-3-yl)ethynyl)phenyl) propanamide] | > 32 | > 32 |  | 
O=c1[nH]cnc(C(CNCCF)Cc2ccc(C#Cc3ccc(CN4CCOCC4)cn3)cc2)c1O (stereo not drawn) [Compound 30, 6-(1-((2-fluoroethyl)amino)-3-(4-((5-(morpholinomethyl)pyridin-2-yl)ethynyl)phenyl)propan-2-yl)-5-hydroxypyrimidin-4(3H)-one] | > 32 | > 32 |  | 
Nc1ccc(C#Cc2ccc(CC(C(=O)NCC(F)F)c3nc[nH]c(=O)c3O)cc2)cn1 (stereo not drawn) [Compound 28, 3-(4-((6-aminopyridin-3-yl)ethynyl)phenyl)-N-(2,2-difluoroethyl)-2-(5-hydroxy-6-oxo-1,6-dihydropyrimidin-4-yl)propanamide] | > 32 | 8 to 32 (≈ 18.2 to 72.8 µM) |  | 
OCC(Cc1nncc(O)c1O)c1ccc(C#Cc2ccc(CN[C@H]3CCOC3)cc2)cc1 (single isomer, unassigned) [Compound 101] |  |  | B (B: >1 μg/mL to ≤8.0 μg/mL) | B (B: >1 μg/mL to ≤8.0 μg/mL)
CC(=O)NCC(Cc1ccc(C#Cc2ccc(CN3CCOCC3)cc2)cc1)c1c(O)cn[nH]c1=O (stereo not drawn) [Compound 131, N-(2-(5-hydroxy-3-oxo-2,3-dihydropyridazin-4-yl)-3-(4-((4-(morpholinomethyl)phenyl)ethynyl)phenyl)propyl)acetamide] | > 32 | > 32 |  | 
O=c1[nH]cnc(CCc2ccc(C#Cc3ncccn3)cc2)c1O [Compound 14, 5-hydroxy-6-(4-(pyrimidin-2-ylethynyl)phenethyl) pyrimidin-4(3H)-one] | > 32 | 8 to 32 (≈ 25.1 to 101 µM) |  | 
Nc1ncc(C#Cc2ccc(CC(C(=O)NCC(F)F)c3nc[nH]c(=O)c3O)cc2)cn1 (stereo not drawn) [Compound 24, 3-(4-((2-aminopyrimidin-5-yl)ethynyl)phenyl)-N-(2,2-difluoroethyl)-2-(5-hydroxy-6-oxo-1,6-dihydropyrimidin-4-yl)propanamide] | > 32 | > 32 |  | 
OCC(Cc1nncc(O)c1O)c1ccc(C#Cc2ccc(CN[C@H]3CCOC3)cc2)cc1 (single isomer, unassigned) [Compound 102] |  |  | C (C: >8.0 μg/mL to ≤32 μg/mL) | C (C: >8.0 μg/mL to ≤32 μg/mL)
O=c1[nH]cnc(CCN2CCC(C#Cc3ccc(CN4CCOCC4)cc3)CC2)c1O [Compound 78, 5-hydroxy-6-(2-(4-((4-(morpholinomethyl)phenyl)ethynyl)piperidin-1-yl)ethyl)pyrimidin-4(3H)-one] | > 32 | 8 to 32 (≈ 18.9 to 75.7 µM) |  | 
O=c1[nH]cnc(CNc2ccc(C#Cc3ccc(CN4CCOCC4)cc3)cc2)c1O [Compound 108, 5-hydroxy-6-(((4-((4-(morpholinomethyl)phenyl)ethynyl)phenyl)amino)methyl) pyrimidin-4(3H)-one] | > 32 | 1 to 8 (≈ 2.4 to 19.2 µM) |  | 

Results, then the compound that gave them:

MIC (K. pneumoniae) [µg/mL] | MIC (E. coli) [µg/mL] | K. pneumoniae MIC (K. pneumoniae) | E. coli MIC (E. coli) | SMILES
> 32 | > 32 |  |  | O=C(NCC(F)F)C(Cc1ccc(C#Cc2cnc(C(F)(F)F)nc2)cc1)c1nc[nH]c(=O)c1O (stereo not drawn) [Compound 27, N-(2,2-difluoroethyl)-2-(5-hydroxy-6-oxo-1,6-dihydropyrimidin-4-yl)-3-(4-((2-(trifluoromethyl)pyrimidin-5-yl)ethynyl)phenyl) propanamide]
> 32 | 8 to 32 (≈ 19.2 to 76.8 µM) |  |  | O=c1[nH]cnc(CCc2ccc(C#Cc3ccc(CNC4CC(O)C4)cc3)cn2)c1O (stereo not drawn) [Compound 15, 5-hydroxy-6-(2-(5-((4-(((3-hydroxycyclobutyl)amino)methyl)phenyl)ethynyl)pyridin-2-yl)ethyl)pyrimidin-4(3H)-one]
1 to 8 (≈ 2.24 to 18 µM) | 1 to 8 (≈ 2.24 to 18 µM) |  |  | O=c1ccoc(CC(CO)c2ccc(C#Cc3ccc(CN4CCOCC4)cc3)cc2)c1O (stereo not drawn) [Compound 137, 3-hydroxy-2-(3-hydroxy-2-(4-((4-(morpholinomethyl)phenyl)ethynyl)phenyl)propyl)-4H-pyran-4-one]
> 32 | 1 to 8 (≈ 2.21 to 17.6 µM) |  |  | C=CCNCC(Cc1ccc(C#CC#Cc2ccc(C(=O)O)cc2)cc1)c1nc[nH]c(=O)c1O (stereo not drawn) [Compound 35, 4-((4-(3-(allylamino)-2-(5 hydroxy-6-oxo-1,6-dihydropyrimidin-4-yl)propyl)phenyl)buta-1,3-diyn-1-yl)benzoic acid]
1 to 8 (≈ 2.34 to 18.7 µM) | 1 to 8 (≈ 2.34 to 18.7 µM) |  |  | C=C(Cc1ccc(C#Cc2ccc(CN3CCOCC3)cc2)cc1)c1nc[nH]c(=O)c1O [Compound 105, 5-hydroxy-6-(3-(4-((4-(morpholinomethyl)phenyl)ethynyl)phenyl)prop-1-en-2-yl)pyrimidin-4(3H)-one]
1 to 8 (≈ 2.54 to 20.3 µM) | 1 to 8 (≈ 2.54 to 20.3 µM) |  |  | CC(=O)NCC(Cc1ccc(C#CC#CC2CC2)c(F)c1)c1nc[nH]c(=O)c1O (stereo not drawn) [Compound 64, N-(3-(4-(cyclopropylbuta-1,3-diyn-1-yl)-3-fluorophenyl)-2-(5-hydroxy-6-oxo-1,6-dihydropyrimidin-4-yl)propyl)acetamide]
1 to 8 (≈ 2.33 to 18.6 µM) | 1 to 8 (≈ 2.33 to 18.6 µM) |  |  | CC(Cc1ccc(C#Cc2ccc(CN3CCOCC3)cc2)cc1)c1nc[nH]c(=O)c1O (stereo not drawn) [Compound 104, 5-hydroxy-6-(1-(4-((4-(morpholinomethyl)phenyl)ethynyl)phenyl)propan-2-yl)pyrimidin-4(3H)-one]
1 to 8 (≈ 2.33 to 18.6 µM) | 1 to 8 (≈ 2.33 to 18.6 µM) |  |  | O=C(NCC(F)F)C(Cc1ccc(C#CC#CC2CC2)c(F)c1)c1nc[nH]c(=O)c1O (stereo not drawn) [Compound 61, 3-(4-(cyclopropylbuta-1,3-diyn-1-yl)-3-fluorophenyl)-N-(2,2-difluoroethyl)-2-(5-hydroxy-6-oxo-1,6-dihydropyrimidin-4-yl)propanamide]
1 to 8 (≈ 2.4 to 19.2 µM) | < 1 |  |  | O=c1[nH]cnc(CCc2ccc(C#Cc3ccc(CN4CCOCC4)nc3)cc2)c1O [Compound 17, 5-hydroxy-6-(4-((6-(morpholinomethyl)pyridin-3-yl)ethynyl)phenethyl) pyrimidin-4(3H)-one]
8 to 32 (≈ 17.2 to 69 µM) | 8 to 32 (≈ 17.2 to 69 µM) |  |  | O=c1[nH]cnc(C(CCl)Cc2ccc(C#Cc3ccc(CN4CCOCC4)cc3)cc2)c1O (stereo not drawn) [Compound 113, 6-(1-chloro-3-(4-((4-(morpholinomethyl)phenyl)ethynyl)phenyl)propan-2-yl)-5-hydroxypyrimidin-4(3H)-one]
8 to 32 (≈ 18.5 to 74.2 µM) | 1 to 8 (≈ 2.32 to 18.5 µM) |  |  | CC(C)C#CC#Cc1ccc(CC(C(=O)NCC(F)F)c2nc[nH]c(=O)c2O)cc1F (stereo not drawn) [Compound 63, N-(2,2-difluoroethyl)-3-(3-fluoro-4-(5-methylhexa-1,3-diyn-1-yl)phenyl)-2-(5-hydroxy-6-oxo-1,6-dihydropyrimidin-4-yl)propanamide]
1 to 8 (≈ 2.4 to 19.2 µM) | < 1 |  |  | O=c1[nH]cnc(CCc2ccc(C#Cc3ccc(CN4CCOCC4)cc3)cn2)c1O [Compound 19, 5-hydroxy-6-(2-(5-((4-(morpholinomethyl)phenyl)ethynyl)pyridin-2-yl)ethyl)pyrimidin-4(3H)-one]
